Data published in ChEMBL document CHEMBL1201862, “PubChem BioAssay data set” (2004).
Activity calls are given as the source filed them.

Assays:
[1] = target: T1, Voltage-gated N-type calcium channel alpha-1B subunit/Amyloid beta A4 precursor protein-binding family A member 1 (Homo sapiens, UniProt Q00975+Q02410); assay type: protein assay
[2] = target: T2, Runt-related transcription factor 1/Core-binding factor subunit beta (Homo sapiens, UniProt Q01196+Q13951); assay: inhibitors of RUNX1 Runt–CBFb-SMMHC binding, primary screen, biochemical, FRET, Cerulean-Runt, Venus-CBFb-SMMHC, uHTS (AID 1434); assay type: protein assay;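 further: partner is the CBFb-SMMHC leukemia fusion protein rather than wild-type CBFb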
[3] = target: T3, Heat shock factor protein 1 (Mus musculus, UniProt P38532); assay: HSF1 potentiators in luciferase reporter cells, confirmation, cell-based, NIH3T3, luminescence, dose retest (AID 435004); assay type: functional;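 further: stress induced by proteasome inhibitor MG132 added 30 min after compound; luciferase reporter driven by HSF1 response element in NIH3T3 cells; actives raise luminescence as potentiators of the MG132 stress response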
T3 sequence (P38532 whole entry): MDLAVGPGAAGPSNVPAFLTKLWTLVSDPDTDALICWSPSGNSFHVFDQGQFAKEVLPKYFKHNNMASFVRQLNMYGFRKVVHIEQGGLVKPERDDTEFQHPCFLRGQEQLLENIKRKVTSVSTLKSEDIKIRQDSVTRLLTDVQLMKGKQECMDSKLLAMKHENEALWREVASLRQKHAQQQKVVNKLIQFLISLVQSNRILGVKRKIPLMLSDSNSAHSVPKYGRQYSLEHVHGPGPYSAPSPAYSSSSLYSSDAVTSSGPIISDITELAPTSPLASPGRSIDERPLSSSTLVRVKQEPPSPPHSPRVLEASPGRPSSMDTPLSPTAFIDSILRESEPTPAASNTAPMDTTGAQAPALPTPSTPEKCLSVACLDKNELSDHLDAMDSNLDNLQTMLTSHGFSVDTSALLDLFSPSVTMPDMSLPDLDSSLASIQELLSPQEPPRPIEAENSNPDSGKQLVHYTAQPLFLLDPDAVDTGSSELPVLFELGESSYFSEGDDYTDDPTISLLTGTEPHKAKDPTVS

[4] = target: T1, Voltage-gated N-type calcium channel alpha-1B subunit/Amyloid beta A4 precursor protein-binding family A member 1; assay type: protein assay; remark: listed apart in the source
[5] = target: T2, Runt-related transcription factor 1/Core-binding factor subunit beta; assay: inhibitors of RUNX1 Runt–CBFb-SMMHC binding, biochemical, TR-FRET (AID 1438); assay type: protein assay
HEK293 [6] = assay: cells; assay type: functional, cell-based; settings: Homo sapiens
[7] = target: Nucleotide-binding oligomerization domain-containing protein 2 (Homo sapiens, UniProt Q9HC29); assay: NOD2 signaling inhibitors, cell-based, luminescence, uHTS, HEK293 (AID 1566); assay type: functional
[8] = target: DNA (cytosine-5)-methyltransferase 1 (Homo sapiens, UniProt P26358); assay: DNMT1 methyltransferase inhibitors, confirmation, biochemical, fluorescent molecular beacon (AID 602386); assay type: functional
[9] = target: T4, Histone-lysine N-methyltransferase NSD2 (Homo sapiens, UniProt O96028); assay type: biochemical
T4 sequence (O96028 whole entry): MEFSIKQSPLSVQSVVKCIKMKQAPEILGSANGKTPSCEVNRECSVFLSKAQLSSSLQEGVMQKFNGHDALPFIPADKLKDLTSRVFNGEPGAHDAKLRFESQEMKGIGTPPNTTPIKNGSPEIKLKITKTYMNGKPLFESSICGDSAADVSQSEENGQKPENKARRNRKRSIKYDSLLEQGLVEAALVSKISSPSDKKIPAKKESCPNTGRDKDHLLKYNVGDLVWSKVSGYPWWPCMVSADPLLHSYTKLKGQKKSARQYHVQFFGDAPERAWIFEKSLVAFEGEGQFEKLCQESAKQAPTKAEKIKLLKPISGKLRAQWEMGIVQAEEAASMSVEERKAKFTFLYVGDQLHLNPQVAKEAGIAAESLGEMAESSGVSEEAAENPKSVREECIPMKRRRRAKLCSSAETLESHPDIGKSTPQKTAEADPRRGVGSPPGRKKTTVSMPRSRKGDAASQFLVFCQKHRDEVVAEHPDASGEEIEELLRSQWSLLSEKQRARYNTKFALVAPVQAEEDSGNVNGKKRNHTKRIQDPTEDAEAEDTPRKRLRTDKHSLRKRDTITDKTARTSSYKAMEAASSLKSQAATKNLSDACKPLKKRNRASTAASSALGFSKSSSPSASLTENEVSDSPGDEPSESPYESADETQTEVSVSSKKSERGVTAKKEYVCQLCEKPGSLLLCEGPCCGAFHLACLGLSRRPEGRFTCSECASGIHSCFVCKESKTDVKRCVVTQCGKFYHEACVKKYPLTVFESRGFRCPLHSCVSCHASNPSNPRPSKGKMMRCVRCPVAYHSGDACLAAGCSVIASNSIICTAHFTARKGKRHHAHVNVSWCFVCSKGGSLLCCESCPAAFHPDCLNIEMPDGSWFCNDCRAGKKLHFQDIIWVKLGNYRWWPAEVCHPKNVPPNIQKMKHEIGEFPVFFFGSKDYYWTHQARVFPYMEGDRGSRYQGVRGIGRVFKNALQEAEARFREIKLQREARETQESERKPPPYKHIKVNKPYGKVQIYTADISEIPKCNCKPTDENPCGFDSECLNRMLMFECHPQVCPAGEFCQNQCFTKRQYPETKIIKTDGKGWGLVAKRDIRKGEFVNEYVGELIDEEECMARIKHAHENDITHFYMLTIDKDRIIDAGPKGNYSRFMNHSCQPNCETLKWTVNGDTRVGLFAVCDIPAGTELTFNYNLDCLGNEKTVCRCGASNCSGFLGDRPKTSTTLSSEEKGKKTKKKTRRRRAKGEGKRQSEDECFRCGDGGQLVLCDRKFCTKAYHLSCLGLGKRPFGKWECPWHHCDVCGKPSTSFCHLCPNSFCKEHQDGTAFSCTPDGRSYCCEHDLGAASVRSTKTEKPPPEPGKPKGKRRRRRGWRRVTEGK

HEK293 [10] = assay: cells; assay type: functional, cell-based; settings: Homo sapiens; remark: listed apart in the source
HEK293 [11] = assay: NOD1 signaling inhibitors, primary screen, cell-based, luminescence, uHTS (AID 1578); assay type: functional; settings: Homo sapiens
HEK293 [12] = assay: cells; assay type: functional, cell-based; settings: Homo sapiens; remark: listed apart in the source
[13] = target: T5, Microphthalmia-associated transcription factor (Homo sapiens, UniProt O75030); assay: TRPM1 promoter luciferase signal decrease, dose response, MITF inhibitor project, cell-based, SK-MEL-5, cherry-picked, set 3 (AID 493073); assay type: functional
T5 sequence (O75030 whole entry): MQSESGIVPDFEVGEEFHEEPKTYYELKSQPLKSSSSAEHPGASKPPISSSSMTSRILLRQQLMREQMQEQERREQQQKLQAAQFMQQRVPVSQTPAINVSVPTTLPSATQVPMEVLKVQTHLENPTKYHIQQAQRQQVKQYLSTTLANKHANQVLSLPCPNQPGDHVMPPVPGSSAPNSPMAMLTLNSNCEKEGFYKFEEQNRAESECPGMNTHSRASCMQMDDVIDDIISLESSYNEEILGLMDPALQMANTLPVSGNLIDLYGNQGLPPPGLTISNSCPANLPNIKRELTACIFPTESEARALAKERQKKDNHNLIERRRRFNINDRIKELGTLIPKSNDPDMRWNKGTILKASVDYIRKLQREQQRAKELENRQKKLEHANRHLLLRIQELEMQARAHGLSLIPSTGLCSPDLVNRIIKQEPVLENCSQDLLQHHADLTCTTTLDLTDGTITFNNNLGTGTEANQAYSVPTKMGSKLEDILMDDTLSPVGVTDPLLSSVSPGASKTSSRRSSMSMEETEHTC

[14] = THP-1 cell cytotoxicity, dose response, cytotoxicity control for Vif-APOBEC3G degradation inhibitor project, THP-1 cells (AID 1117359); assay type: functional; settings: Human immunodeficiency virus 1, THP-1
HEK293 [15] = assay: NOD2 signaling inhibitors in MDP-stimulated cells, cell-based, uHTS, luminescence (AID 2001); assay type: functional; settings: Homo sapiens
[16] = target: T6, Type-1 angiotensin II receptor (Homo sapiens, UniProt P30556); assay: AT1 receptor agonists, dose response, selectivity assay for APJ receptor agonist project, cell-based, uHTS hits (AID 488865); assay type: functional;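 further: beta-arrestin recruitment to AT1 measured by enzyme fragment complementation luminescence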
T6 sequence (P30556 whole entry): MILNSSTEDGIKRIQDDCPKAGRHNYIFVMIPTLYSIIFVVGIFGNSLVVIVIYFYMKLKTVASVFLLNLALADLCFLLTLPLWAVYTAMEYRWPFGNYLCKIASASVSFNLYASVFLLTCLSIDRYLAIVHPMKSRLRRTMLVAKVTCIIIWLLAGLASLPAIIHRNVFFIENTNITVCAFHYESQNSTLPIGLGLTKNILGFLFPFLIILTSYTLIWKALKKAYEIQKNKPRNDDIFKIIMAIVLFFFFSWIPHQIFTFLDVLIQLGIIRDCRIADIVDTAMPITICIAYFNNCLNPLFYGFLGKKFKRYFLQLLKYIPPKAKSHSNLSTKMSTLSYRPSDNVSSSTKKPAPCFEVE

[17] = Luminescence Cell-Based Dose Retest to Confirm Inhibitors of Cancer Stem Cells. [Related pubchem assays (depositor defined):AID2717, AID2721]; assay type: functional; settings: Homo sapiens
[18] = target: DNA damage-inducible transcript 3 protein (Mus musculus, UniProt P35639); assay type: functional, Cricetulus griseus
Cytochrome P450 2C9 = Cytochrome P450 2C9 (Homo sapiens, UniProt P11712)
Troponin, cardiac muscle = Troponin, cardiac muscle (Homo sapiens, UniProt P19429+P45379+P63316); assay: Fluorescence-based biochemical high throughput dose response assay for activators of the calcium sensitivity of cardiac Regulated Thin Filaments (RTF). [Related pubchem assays (depositor defined):AID493008, AID493018, AID504382, AID504383]; assay type: protein-complex assay
Cytochrome P450 1A2 = target: T7, Cytochrome P450 1A2 (Homo sapiens, UniProt P05177);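 further: PubChem cytochrome P450 panel assay, CYP1A2 panel member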
T7 sequence (P05177 whole entry): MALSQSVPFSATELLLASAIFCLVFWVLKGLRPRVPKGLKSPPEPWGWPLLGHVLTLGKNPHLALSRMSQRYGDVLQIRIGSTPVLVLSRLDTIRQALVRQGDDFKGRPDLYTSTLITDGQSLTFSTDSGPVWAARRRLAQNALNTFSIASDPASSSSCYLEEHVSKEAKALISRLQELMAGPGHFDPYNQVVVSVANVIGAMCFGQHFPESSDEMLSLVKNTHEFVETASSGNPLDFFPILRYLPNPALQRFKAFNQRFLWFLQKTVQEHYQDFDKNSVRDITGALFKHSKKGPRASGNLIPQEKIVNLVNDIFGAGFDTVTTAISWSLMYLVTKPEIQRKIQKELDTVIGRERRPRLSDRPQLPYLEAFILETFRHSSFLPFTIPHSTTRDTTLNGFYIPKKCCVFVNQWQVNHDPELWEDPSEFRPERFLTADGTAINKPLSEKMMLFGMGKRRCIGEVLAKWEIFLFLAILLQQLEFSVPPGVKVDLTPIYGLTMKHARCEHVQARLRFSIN

Cannabinoid receptor 2 [19] = target: T8, Cannabinoid receptor 2 (Homo sapiens, UniProt P34972); assay: SAR analysis of agonists of the Cannabinoid Receptor 2 using an Image-Based Assay - Set 2. [Related pubchem assays (depositor defined):AID1961, AID1965]; assay type: functional
Cannabinoid receptor 2 [20] = target: T8, Cannabinoid receptor 2; assay: SAR analysis of antagonists of the Cannabinoid Receptor 2 using an Image-Based Assay - Set 2. [Related pubchem assays (depositor defined):AID1961, AID1965]; assay type: functional
[21] = target: T9, G-protein coupled receptor 35 (Homo sapiens, UniProt Q9HC97); assay: SAR analysis of Antagonists of the GPR35 Receptor using an Image-Based Assay - Set 4. [Related pubchem assays (depositor defined):[…]]; assay type: functional
[22] = target: T9, G-protein coupled receptor 35; assay: SAR analysis of Agonists of the GPR35 Receptor using an Image-Based Assay - Set 3. [Related pubchem assays (depositor defined):AID1961, AID1965]; assay type: functional
Cannabinoid receptor 1 [23] = target: T10, Cannabinoid receptor 1 (Homo sapiens, UniProt P21554); assay: SAR analysis of antagonists of the Cannabinoid Receptor 1 using an Image-Based Assay - Set 3. [Related pubchem assays (depositor defined):AID1961, AID1965]; assay type: functional
Cannabinoid receptor 1 [24] = target: T10, Cannabinoid receptor 1; assay: SAR analysis of agonists of the Cannabinoid Receptor 1 using an Image-Based Assay - Set 3. [Related pubchem assays (depositor defined):AID1961, AID1965]; assay type: functional
[25] = target: G-protein coupled receptor 55 (Homo sapiens, UniProt Q9Y2T6); assay: SAR analysis of selective Agonists of GPR55 using an Image-Based Assay - Set 2. [Related pubchem assays (depositor defined):AID1961, AID1965]; assay type: functional

For Cc1cc(C)cc(-n2c3nc4ccccc4nc3c3c(=O)n(Cc4ccco4)cnc32)c1, the IC50 [1] was 4.14 µM (active), the IC50 [2] was > 100 µM (inactive) and the EC50 [3] was > 260 µM (inactive). The IC50 [4] was 1.28 µM (active) and the IC50 [5] was 34 µM (active).

For CC(C)N1C(=O)/C(=C/C=C/c2ccco2)C(=O)N(Cc2ccco2)C1=O, the IC50 (HEK293 [6]) was > 20 µM (inactive), the EC50 [7] was > 20 µM (inactive) and the IC50 [8] was 8.31 µM (active). The AC50 [9] was 8.26 µM (active), the IC50 (HEK293 [10]) was 18.8 µM (active) and the EC50 (HEK293 [11]) was > 20 µM (inactive). The IC50 (HEK293 [12]) was > 20 µM (inactive), the AC50 [13] was 9.97 µM (active) and the CC50 [14] was > 40 µM (active). The IC50 (HEK293 [15]) was > 20 µM (inactive).

For CCCCCCc1cc2cc(-c3nnc(-c4cc(OC)c(OC)c(OC)c4)o3)c(=O)oc2cc1O, the EC50 [16] was > 100 µM (inactive) and the AC50 [17] was 7.35 µM (active).

For COc1ccc(/C=C/C(=O)NC(=S)NNC(=O)c2cccnc2)cc1, the “Absolute IC50 (CHOP)” value [18] was 10 µM.

With Cc1cc2nc(C3CCCN(C(=O)NCc4ccccc4)C3)[nH]c2cc1C (stereo not drawn) the AC50 (Cytochrome P450 2C9) was 22.4 µM (inconclusive), the EC50 (Troponin, cardiac muscle) was > 71.6 µM (inactive) and the AC50 (Cytochrome P450 1A2) was 25.1 µM (inconclusive).

In the case of COc1ccc(S(=O)(=O)N2CCOCC2)cc1NC(=O)c1cc2c(s1)CCCCCC2, the EC50 (Cannabinoid receptor 2 [19]) is reported as > 32 µM (inactive), the IC50 (Cannabinoid receptor 2 [20]) is reported as > 32 µM (inactive) and the IC50 [21] is reported as > 32 µM (inactive). The EC50 [22] was > 32 µM (inactive), the IC50 (Cannabinoid receptor 1 [23]) was 18.2 µM (inactive) and the EC50 (Cannabinoid receptor 1 [24]) was > 32 µM (inactive). The EC50 [25] was 17.7 µM (inactive).
